Assay [1] deals with oxytocin receptor (OTR) in human term myometrial cells. Briefly: Oxytocin-induced intracellular calcium transients in human term myometrial cells (Fura-2, single cells). Type of assay: cell-based. The settings on record: 0.001 μg/ml (2.2 nM) troglitazone, 1 min before 10 nM oxytocin; FIG. 3B. As for the experimental part:
FIGS. 3A-H. Change in intracellular cytoplasmic calcium levels in human term myometrial cells in culture. Each line represents the change in calcium for a single cell. Cells were either pretreated with troglitazone for one minute and then treated with oxytocin, bombesin (BBS), or bradykinin. These three agents cause an increase in intracellular calcium and cause uterine contraction under the correct circumstance. Cells were grown in 10% FBS, DMEM, penicillin/streptomycin resulting in elevated OTR levels. Cells were then put into KRH buffer containing Fura-2. The cells take up Fura-2 allowing for detection in changes of cytoplasmic levels of calcium. Cells were then treated as described for each figure. […] There is no effect of troglitazone at this concentration upon oxytocin-stimulated calcium transients.
Cell Culture Conditions: The proper protocols were followed in obtaining human term myometrium tissue from mother's delivering via C-section. Human term pregnant myometrial cells were isolated by collagenase dispersion and were grown in media consisting of Delbecco's modified eagles media (DMEM) supplemented with 10% fetal bovine serum (FBS), and 2% penicillin/streptomycin in a humidified tissue culture incubator at 37° C. under an atmosphere of 5% CO2 and 95% air. […]
On the technique in general: Calcium flux is commonly read through the fluorescence of an indicator in the cells.

For assay [2], the target named is T1, oxytocin receptors (OTR) (Homo sapiens, UniProt P30559).
T1 construct: endogenous in cells; host or cells: primary human term pregnant myometrial cells (from C-section tissue, collagenase dispersion)
T1 sequence (P30559 1-389): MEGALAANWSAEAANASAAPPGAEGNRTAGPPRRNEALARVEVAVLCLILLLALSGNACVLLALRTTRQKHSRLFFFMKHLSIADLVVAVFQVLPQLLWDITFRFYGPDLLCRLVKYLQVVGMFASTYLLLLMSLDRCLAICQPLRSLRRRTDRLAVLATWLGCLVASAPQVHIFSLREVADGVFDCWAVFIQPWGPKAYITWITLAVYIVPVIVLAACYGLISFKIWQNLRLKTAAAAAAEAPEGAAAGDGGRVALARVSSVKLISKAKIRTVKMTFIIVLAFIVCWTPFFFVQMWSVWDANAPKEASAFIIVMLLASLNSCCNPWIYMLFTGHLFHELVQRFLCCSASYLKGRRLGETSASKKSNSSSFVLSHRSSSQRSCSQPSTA
Kind of assay: Competition with 125I-OTA for OTR binding, whole-cell assay in human myometrial cells. The settings on record: for affinity for OTR binding: FIG. 1. How it is done:
FIG. 1. […] Percent inhibition of ^125I-OTA binding in human myometrial cells.
Determination of OTR ligand binding: OTA was monoiodinated as previously described (Hinko and Soloff, 1992). The specific activity of the iodinated peptide was 2000 Ci/mmol at the time of preparation. Whole cell assays for specific OTR binding activity were performed as described previously, using increasing concentrations of [^125I]OTA (Copland et al., 1999). The concentration of cellular DNA was determined in parallel, using the Hoechst dye H 33258 and a Hoefer DyNA Quant fluorometer according to the manufacturer's instructions.
The specific binding was determined by subtracting […]. Specific binding was expressed as a percent of total binding. All points were done in triplicate.

The subject of assay [3] is oxytocin induced uterine contractions. The settings on record: Thornton et al. 1999; cited from earlier work.
Setting [4] is: FIG. 1, read-out: IC50, 125I-OTA binding to OTR.

SMILES strings stand for the structures. Where two headings read alike, the source gives them in different places.

For `Cc1c(C)c2c(c(C)c1O)CCC(C)(COc1ccc(CC3SC(=O)NC3=O)cc1)O2` (racemic) [troglitazone, ±5-[[4-[(3,4-dihydro-6-hydroxy-2,5,7,8-tetramethyl-2H-1-benzopyran-2-yl)methoxy]phenyl]methyl]-2,4-thiazolidinedione], the “effect on oxytocin-stimulated calcium transients” value in assay [1] is reported as “no effect”. Also, the IC50 in assay [2] (FIG. 1, read-out: 50% inhibitory concentration (IC50), 125I-OTA binding to OTR) was determined as 0.0157 µM.

Turning to `CC(=O)[C@H]1CC[C@H]2[C@@H]3CC[C@H]4CC(=O)CC[C@]4(C)[C@H]3CC[C@]12C` [5β-dihydroprogesterone], in assay [3], the “concentration needed to inhibit oxytocin induced uterine contractions” value was 100 µM. Also, the IC50 in assay [2] (setting [4]) was ~100 µM.

Regarding `C[C@]12CC[C@@H]3c4ccc(O)cc4CC[C@H]3[C@@H]1CC[C@@H]2O` [17β-estradiol], the “affinity for OTR binding” value in assay [2] is “no affinity”.

On to `CN(CCOc1ccc(CC2SC(=O)NC2=O)cc1)c1ccccn1` (centres unmarked) [BRL49653, rosiglitazone], for which the IC50 in assay [2] (setting [4]) is ~10.6 µM.

In the case of `Cc1c(C)c2c(c(C)c1OC(=O)CCC(=O)O)CC[C@@](C)(CCC[C@H](C)CCC[C@H](C)CCCC(C)C)O2` [Vitamin E succinate], the “affinity for OTR binding” value in assay [2] is on record as “no affinity”.

With `CCc1ccc(CCOc2ccc(CC3SC(=O)NC3=O)cc2)nc1` (centres unmarked) [pioglitazone], the IC50 in assay [2] (setting [4]) was ~10.6 µM.
